≈ marks a conversion by molar mass, not a printed value. Like-named read-outs stand apart in the source and are kept apart here.
Experiments:
Pseudomonas aeruginosa = experiment: MIC, CLSI broth microdilution, Pseudomonas aeruginosa panel; format: cell-based; settings: Pseudomonas aeruginosa, read-out: MIC
Description: (§1) Minimum inhibitory concentrations (MIC) were determined by reference Clinical and Laboratory Standards Institute (CLSI) broth microdilution methods per M7-A7 [2006]. Quality control ranges utilizing E. coli ATCC 25922, P. aeruginosa ATCC 27853 and S. aureus ATCC 29213, and interpretive criteria for comparator agents were as published in CLSI M100-S17 [2007]. Briefly, serial two-fold dilutions of the test compounds were prepared at 2× concentration in Mueller Hinton Broth. The compound dilutions were mixed in 96-well assay plates in a 1:1 ratio with bacterial inoculum. The inoculum was prepared by suspension of a colony from an agar plate that was prepared the previous day. Bacteria were suspended in sterile saline and added to each assay plate to obtain a final concentration of 5×10^5 CFU/mL. The plates were incubated at 35 C for 20 hours in ambient air.
The MIC panel presented in Table 1 contains 27 isolates of Pseudomonas aeruginosa: strains 1-22 are clinical isolates from around the world collected between 2004-2007 which contain representative resistance mechanisms commonly found in Pseudomonas, such as the AAC(6′)-I, AAC(6′)-II, APH(3′)-IIb, ANT(2″)-I, and perm/efflux; strains 23-27 are susceptible.

Acinetobacter baumannii = experiment: MIC, CLSI broth microdilution, Acinetobacter baumannii panel; format: cell-based; settings: Acinetobacter baumannii, read-out: MIC
Description: as §1
The MIC panel presented in Table 2 contains 29 isolates of Acinetobacter baumannii: strains 1-24 are clinical isolates from around the world collected between 2004-2007 which contain representative resistance mechanisms commonly found in Acinetobacter baumannii, such as AAC(3)-I and II, AAC(6′)-I, ANT(2″)-I, APH(3′)-VI, and perm/efflux; strains 25-29 are susceptible.

[1] = 14-day rat toxicology (nephrotoxicity), once-daily subcutaneous injection
Description: The study design utilized once-daily subcutaneous injection administration to the rat for 14 days and assessment of reversibility of any changes following a 28-day recovery period.
The dose volume administered to each animal was 1 mL/kg.

With `NC[C@@H]1O[C@H](O[C@H]2[C@@H](O)[C@H](O[C@@H]3[C@@H](O)[C@H](NC(=O)[C@@H](O)CN)C[C@H](N)[C@H]3O[C@H]3O[C@H](CNCCO)[C@@H](O)C[C@H]3N)O[C@@H]2CO)[C@H](N)[C@@H](O)[C@@H]1O` [Compound 20] the MIC (Pseudomonas aeruginosa; P. aeruginosa clinical strain 1 (resistant clinical isolate)) was at most 1 µg/mL, the MIC (Pseudomonas aeruginosa; P. aeruginosa clinical strain 2 (resistant clinical isolate)) was at most 1 µg/mL and the MIC (Pseudomonas aeruginosa; P. aeruginosa clinical strain 3 (resistant clinical isolate)) was 1 to 8 µg/mL (≈ 1.37 to 11 µM). It also gave an MIC (Pseudomonas aeruginosa; P. aeruginosa clinical strain 4 (resistant clinical isolate)) of 1 to 8 µg/mL (≈ 1.37 to 11 µM), an MIC (Pseudomonas aeruginosa; P. aeruginosa clinical strain 5 (resistant clinical isolate)) of 1 to 8 µg/mL (≈ 1.37 to 11 µM) and an MIC (Pseudomonas aeruginosa; P. aeruginosa clinical strain 6 (resistant clinical isolate)) of 1 to 8 µg/mL (≈ 1.37 to 11 µM). It also gave an MIC (Pseudomonas aeruginosa; P. aeruginosa clinical strain 7 (resistant clinical isolate)) of at most 1 µg/mL, an MIC (Pseudomonas aeruginosa; P. aeruginosa clinical strain 8 (resistant clinical isolate)) of 1 to 8 µg/mL (≈ 1.37 to 11 µM) and an MIC (Pseudomonas aeruginosa; P. aeruginosa clinical strain 9 (resistant clinical isolate)) of at most 1 µg/mL. The MIC (Pseudomonas aeruginosa; P. aeruginosa clinical strain 10 (resistant clinical isolate)) was 1 to 8 µg/mL (≈ 1.37 to 11 µM), the MIC (Pseudomonas aeruginosa; P. aeruginosa clinical strain 11 (resistant clinical isolate)) was at most 1 µg/mL and the MIC (Pseudomonas aeruginosa; P. aeruginosa clinical strain 12 (resistant clinical isolate)) was at most 1 µg/mL. The MIC (Pseudomonas aeruginosa; P. aeruginosa clinical strain 13 (resistant clinical isolate)) was 8 to 16 µg/mL (≈ 11 to 21.9 µM), the MIC (Pseudomonas aeruginosa; P. aeruginosa clinical strain 14 (resistant clinical isolate)) was at most 1 µg/mL and the MIC (Pseudomonas aeruginosa; P. aeruginosa clinical strain 15 (resistant clinical isolate)) was 1 to 8 µg/mL (≈ 1.37 to 11 µM). For the same compound, the MIC (Pseudomonas aeruginosa; P. aeruginosa clinical strain 16 (resistant clinical isolate)) was at most 1 µg/mL, the MIC (Pseudomonas aeruginosa; P. aeruginosa clinical strain 17 (resistant clinical isolate)) was 1 to 8 µg/mL (≈ 1.37 to 11 µM) and the MIC (Pseudomonas aeruginosa; P. aeruginosa clinical strain 18 (resistant clinical isolate)) was 1 to 8 µg/mL (≈ 1.37 to 11 µM). It also gave an MIC (Pseudomonas aeruginosa; P. aeruginosa clinical strain 19 (resistant clinical isolate)) of 16 to 32 µg/mL (≈ 21.9 to 43.8 µM), an MIC (Pseudomonas aeruginosa; P. aeruginosa clinical strain 20 (resistant clinical isolate)) of 16 to 32 µg/mL (≈ 21.9 to 43.8 µM) and an MIC (Pseudomonas aeruginosa; P. aeruginosa clinical strain 21 (resistant clinical isolate)) of 1 to 8 µg/mL (≈ 1.37 to 11 µM). For the same compound, the MIC (Pseudomonas aeruginosa; P. aeruginosa clinical strain 22 (resistant clinical isolate)) was 1 to 8 µg/mL (≈ 1.37 to 11 µM), the MIC (Pseudomonas aeruginosa; P. aeruginosa strain 23 (susceptible)) was at most 1 µg/mL and the MIC (Pseudomonas aeruginosa; P. aeruginosa strain 24 (susceptible)) was at most 1 µg/mL. It also gave an MIC (Pseudomonas aeruginosa; P. aeruginosa strain 25 (susceptible)) of at most 1 µg/mL, an MIC (Pseudomonas aeruginosa; P. aeruginosa strain 26 (susceptible)) of at most 1 µg/mL and an MIC (Pseudomonas aeruginosa; P. aeruginosa strain 27 (susceptible)) of at most 1 µg/mL. It also gave an MIC (Acinetobacter baumannii; A. baumannii clinical strain 1 (resistant clinical isolate)) of 1 to 8 µg/mL (≈ 1.37 to 11 µM), an MIC (Acinetobacter baumannii; A. baumannii clinical strain 2 (resistant clinical isolate)) of 1 to 8 µg/mL (≈ 1.37 to 11 µM) and an MIC (Acinetobacter baumannii; A. baumannii clinical strain 3 (resistant clinical isolate)) of at most 1 µg/mL. For the same compound, the MIC (Acinetobacter baumannii; A. baumannii clinical strain 4 (resistant clinical isolate)) was 16 to 32 µg/mL (≈ 21.9 to 43.8 µM), the MIC (Acinetobacter baumannii; A. baumannii clinical strain 5 (resistant clinical isolate)) was at most 1 µg/mL and the MIC (Acinetobacter baumannii; A. baumannii clinical strain 6 (resistant clinical isolate)) was 1 to 8 µg/mL (≈ 1.37 to 11 µM). The MIC (Acinetobacter baumannii; A. baumannii clinical strain 7 (resistant clinical isolate)) was at most 1 µg/mL, the MIC (Acinetobacter baumannii; A. baumannii clinical strain 8 (resistant clinical isolate)) was at most 1 µg/mL and the MIC (Acinetobacter baumannii; A. baumannii clinical strain 9 (resistant clinical isolate)) was at most 1 µg/mL. For the same compound, the MIC (Acinetobacter baumannii; A. baumannii clinical strain 10 (resistant clinical isolate)) was 1 to 8 µg/mL (≈ 1.37 to 11 µM), the MIC (Acinetobacter baumannii; A. baumannii clinical strain 11 (resistant clinical isolate)) was at most 1 µg/mL and the MIC (Acinetobacter baumannii; A. baumannii clinical strain 12 (resistant clinical isolate)) was at most 1 µg/mL. For the same compound, the MIC (Acinetobacter baumannii; A. baumannii clinical strain 13 (resistant clinical isolate)) was at most 1 µg/mL, the MIC (Acinetobacter baumannii; A. baumannii clinical strain 14 (resistant clinical isolate)) was at most 1 µg/mL and the MIC (Acinetobacter baumannii; A. baumannii clinical strain 15 (resistant clinical isolate)) was at most 1 µg/mL. The MIC (Acinetobacter baumannii; A. baumannii clinical strain 16 (resistant clinical isolate)) was 1 to 8 µg/mL (≈ 1.37 to 11 µM), the MIC (Acinetobacter baumannii; A. baumannii clinical strain 17 (resistant clinical isolate)) was 1 to 8 µg/mL (≈ 1.37 to 11 µM) and the MIC (Acinetobacter baumannii; A. baumannii clinical strain 18 (resistant clinical isolate)) was 1 to 8 µg/mL (≈ 1.37 to 11 µM). The MIC (Acinetobacter baumannii; A. baumannii clinical strain 19 (resistant clinical isolate)) was 1 to 8 µg/mL (≈ 1.37 to 11 µM), the MIC (Acinetobacter baumannii; A. baumannii clinical strain 20 (resistant clinical isolate)) was 1 to 8 µg/mL (≈ 1.37 to 11 µM) and the MIC (Acinetobacter baumannii; A. baumannii clinical strain 21 (resistant clinical isolate)) was at most 1 µg/mL. For the same compound, the MIC (Acinetobacter baumannii; A. baumannii clinical strain 22 (resistant clinical isolate)) was 8 to 16 µg/mL (≈ 11 to 21.9 µM), the MIC (Acinetobacter baumannii; A. baumannii clinical strain 23 (resistant clinical isolate)) was at most 1 µg/mL and the MIC (Acinetobacter baumannii; A. baumannii clinical strain 24 (resistant clinical isolate)) was 1 to 8 µg/mL (≈ 1.37 to 11 µM). It also gave an MIC (Acinetobacter baumannii; A. baumannii strain 25 (susceptible)) of at most 1 µg/mL, an MIC (Acinetobacter baumannii; A. baumannii strain 26 (susceptible)) of at most 1 µg/mL and an MIC (Acinetobacter baumannii; A. baumannii strain 27 (susceptible)) of at most 1 µg/mL. The MIC (Acinetobacter baumannii; A. baumannii strain 28 (susceptible)) was at most 1 µg/mL, the MIC (Acinetobacter baumannii; A. baumannii strain 29 (susceptible)) was at most 1 µg/mL and the mortality ([1]; 10, 30 or 100 mg/kg/day subcutaneous, once daily, 14 days, Sprague-Dawley rat) was “did not result in mortality at any dose”. For the same compound, the “macroscopic or microscopic changes to the kidneys” value ([1]; rat, in vivo) was “nor any significant macroscopic or microscopic changes to the kidneys”.

— US8653041B2, “Antibacterial aminoglycoside analogs” (Achaogen, Inc., priority 2010, dated 2014)
